Like-named read-outs stand apart in the source and are kept apart here.

Experimental findings from PMC8899577, “Targeting the anti-apoptotic Bcl-2 family proteins: machine learning virtual screening and biological evaluation of new small molecules” (Theranostics, 2022) are described below.

Data set [1] concerns the target Mcl-1 (Homo sapiens, UniProt Q07820). Description: SPR binding to immobilized Mcl-1. The conditions noted are these: 25 °C, 2-site fit, highest affinity site. The procedure:
FastStep experiments were performed with a SensiQ Pioneer apparatus. Bcl-2 immobilization on COOH5 sensorchips was carried out essentially as previously reported, [40]. All the experiments were carried out at 25 °C in degassed HEPES 20 mM, pH 7.4, NaCl 150 mM, 0.005% surfactant P20 + 2% DMSO (HBSP2%D). […] Each sensorgram is the average of at least three experiments. The decrease in Response Units (RU) after 165 s indicates analyte dissociation from the immobilized Bcl-2 upon HSBP2%D buffer injection. Control SPR experiments were carried out measuring sensorgrams on Bcl-xL and Mcl-1 (ligands) immobilized on COOH5 sensorchips as previously reported at 25 °C in degassed HBSP2%D buffer. […] Each sensorgram is the average of at least three experiments. The decrease in RU after 180 s indicates analyte dissociation from the immobilized ligands upon HSBP2%D buffer injection. Kinetic evaluation of the sensorgrams was carried out using the Qdat 4.0 program; best fittings were obtained with 2 sites and indicated in red (reported KD values refer to dissociation constants of the highest affinity site).
Figure 3 SPR analysis of the interaction between IS20 or IS21 and Bcl-xL and Mcl-1 proteins. SPR experiments were carried out measuring sensorgrams on Bcl-xL and Mcl-1 (ligands) immobilized on COOH5 sensorchips at 25 °C in degassed HBSP2%D buffer. IS20 and IS21 (analytes) were injected at a flow rate = 30 μL/min, at the following concentrations: 0.3 μM (only for Mcl-1 experiments); 1 μM; 3 μM; 10 μM; 30 μM. Each sensorgram is the average of at least three experiments. The decrease in RU (Response Units) after 180 s indicates analyte dissociation from the immobilized ligands upon HSBP2%D buffer injection. The fitted KD values for Bcl-xL are the following. IS20: 0.42 ± 0.09 μM and IS21: 0.51 ± 0.17 μM. The fitted KD values for Mcl-1are the following. IS20: 3.9 ± 0.30 μM and IS21: 1.16 ± 0.14 μM;
(Surface plasmon resonance follows binding to a sensor surface in real time, without labels.)

In data set [2] the test system is HL60 cells. As to the kind of experiment: Western blot of LC3B-I/LC3B-II (autophagy), HL60. The class given is cell-based, Human. As to conditions: 20 µM for 24 h. (In general: A western blot detects proteins with antibodies after separation by electrophoresis.)
Data set [3] is described as follows: Pharmacokinetics in mouse plasma (LC-MS/MS). The data set is classed as in vivo, C57/Bl6 mice. The conditions noted are these: mice, intraperitoneal; for Tmax: read-out: time of maximum plasma concentration after injection. The protocol:
184 In vivo experi ments. […]
186 30% PEG400 (Sigma-Al drich) and 60% NaCl. Mice were sacrificed starting from 15 min to 24 h
187 after injection. Blood samples were collected b y cardiac puncture, centri fuged at 3,000 g for 10 min
188 at 4 °C and the obtained plasma was stored at - 80 °C until the analysis performed b y liquid
189 chromatograph y tandem mass spectrometry (LC –MS/MS). Given that the two compounds were
190 singularl y administered to the animals for the pharmacokinetic studies, IS20 was used as internal
191 standard (IS) for IS21 and vice versa. Internal Standard Working Solutions (IS-WS) were prepared
192 by adding appropriate volumes of the stock solutions to 50 mL of 0.1% formic acid (Fluka, Milan,
193 Ital y) in methanol:acetonitrile (50:50, v/v, Sigma -Aldrich), in order to reach a final concentration of
194 50 ng/m L. The solutions were maintained at - 20°C.
195 LC-MS/MS Analysis. 40 µ L of mouse plasma were mixed with 160 µ L o f IS -WS. The mixture was
196 vortex mixed for 1 min and centrifuged at 12,000 g for 10 min at 4 °C. The supernatant was
197 collected and 8 µL were injected into the LC–MS/MS system. The HP LC equipment consists of a
198 Series 200 Micro-LC Pump and a Series 200 autosampler from Perkin Elm er (Norwalk, CT, USA).
199 A triple quadrupole mass spectrometer, AB-Sciex API2000 (Toronto, ON, Canada) was used for
200 detection. The anal yt es were anal yzed using a C18 phase Kinetex column (10 cm x 2.1 mm ID) fro m
201 Phenomenex (Torran ce, CA, USA) packed with core–shell particles of […]. The mobile phases
202 were (A) acetonitrile an d (B) water, both containing 0.1% formic acid, at a flow rate of 0.25 mL /
203 min and were entirel y transferred into the mass spectrometer source. Gradient elution was as
204 follows: increase of the organic phase from 60 to 80% in 0.8 min, then to 90% in the following 1.2
205 min and linearly to 100% in 2 min. Finally, after 3.9 min of 100% , the column was led to the
206 original conditions in 2.5 min to enable equilibration of the column.
207 Both anal ytes were detected in positive ionization with a capillar y voltage of 5500 V, nebulizer gas
208 (air) at 40 psi, turbo gas (nitrogen) at 70 psi and 400 °C. The other ion source parameters were set
209 as follows: curtain gas (CUR) 18 psi; collision gas (CAD) 6 psi; declustering potential (DP) 80 V,
210 entrance potential (EP) 1 2 V.
211 The quantitative data were acquired using Multi Reaction Monitoring (MRM) acquisition mode.
212 Two MRM transitions (precursor ion>fragment ion) were selected for the analytes. For IS20
214 eV while collision cell exit potential (CXP) was at 19 and 8 V for the two transitions, respectively.
216 and 51 eV while collision cell exit potential (CXP) was at 21 and 6 V for the two transitions,
218 The anal ytical method was validated according to FDA guidelines for bioanalytical method
219 validation. Linearity, recover y, matrix effect, precision, accurac y, limits of detection (LODs) and
220 lower limits of quantification (LLOQs) were evaluated.
221 Calibration standard solutions were prepared in blank plasma b y spiking 25 µL of a standard
222 mixture at appropriate concentration to 40 µL of plasma and by adding 140 µL of methanol:
223 acetonitrile (50:50, v/v). Calibrators were then treated similarly to the animal samples. The
224 calibration range was 5 to 7500 ng/ mL and the calibrators were prepared at nine level of
225 concentration. Precision, recover y and accurac y w ere ev aluated at three lev el of concentrations (25,
226 […]) and resulted within the acceptable limits.
227 The limit of detection (LOD) was defined as the lowest concentration with a signal- to-noise (S/N)
228 ratio greater than 3. The limit of quantification (LOQ) was defined as the concentration at which
229 both precision (RSD%) and accurac y were less than 20%. LOQ resulted to be 2 ng/ mL while LOD
231 The validated method was then successfully applied in measuring IS20 and IS21 following drug […]

The mark [4] stands for this setting: C57/Bl6, mouse, plasma, ip, 100 mg/kg.

Mcl-1, sequence (Q07820 whole entry): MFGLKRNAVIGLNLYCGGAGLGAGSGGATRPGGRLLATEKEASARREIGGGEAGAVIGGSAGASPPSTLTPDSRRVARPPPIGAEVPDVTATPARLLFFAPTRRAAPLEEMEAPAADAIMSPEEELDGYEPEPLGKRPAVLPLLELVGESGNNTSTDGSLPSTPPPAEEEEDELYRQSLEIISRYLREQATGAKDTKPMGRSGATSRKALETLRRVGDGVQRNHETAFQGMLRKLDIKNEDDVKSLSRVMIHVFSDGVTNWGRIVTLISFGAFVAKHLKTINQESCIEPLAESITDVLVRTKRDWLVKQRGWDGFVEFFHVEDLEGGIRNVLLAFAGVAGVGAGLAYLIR

The Kd is the concentration at which binding is half-saturated. Low values mean a tighter complex, high ones a looser complex. As to `CCCCOc1ccc(C2/C(=C(\O)c3ccc4c(c3)CC(C)O4)C(=O)C(=O)N2c2nnc(SCc3ccc(Cl)cc3)s2)cc1OCC` (centres unmarked) [IS20], the Kd in data set [1] came out at 3900 ± 300 nM. In addition, in data set [2], the “ratio of LC3B-II on LC3B-I, HL60” value is on record as “Increased ratio”. Besides, the Tmax in data set [3] (setting [4]) amounted to 16 h.

The Cmax is the highest concentration seen after dosing. Molecule `CCCCCOc1ccc(C2/C(=C(\O)c3ccc4c(c3)CC(C)O4)C(=O)C(=O)N2c2nnc(SCc3ccc(Cl)cc3)s2)cc1OCC` (centres unmarked) [IS21] yielded a Kd in data set [1] of 1160 ± 140 nM. Further, in data set [2], the “ratio of LC3B-II on LC3B-I, HL60” value is “Increased ratio”. The molecule further gave a Cmax in data set [3] (C57/Bl6, mouse, ip, 50 mg/kg, plasma) of 4.1 µM. The AUC in data set [3] (C57/Bl6, mouse, ip, 50 mg/kg, plasma, read-out: mean AUCtot) came out at 40.9 µM·h. In addition, the half-life in data set [3] (C57/Bl6, mouse, ip, 50 mg/kg, plasma, read-out: mean t½ (converted)) was 11 h. Also, the Tmax in data set [3] (C57/Bl6, mouse, plasma, ip, 50 mg/kg) came to 2 h; in data set [3] (setting [4]) it was 4 h. In data set [3] (50 mg/kg), this molecule showed a mean total clearance of 26.3 mL/min/kg.
